In patent publication US11865128B2, “Aminoglycosides and uses thereof in treating genetic disorders” (Technion Research & Development Foundation Limited, priority 2010, dated 2024):
Converted amounts (≈) assume the structure as drawn. Where two headings read alike, the source gives them in different places.

How the values were obtained:
[1] = tested on: Prokaryotic system (prokaryotic ribosome); conditions: shown previously; cited from earlier work
E. coli R477/100 = assay: Antibacterial activity MIC, double-microdilution; format: cell-based, Escherichia coli; conditions: read-out: Antibacterial activity MIC E. coli R477/100
B. subtilis ATCC6633 = assay: Antibacterial activity MIC, double-microdilution; format: cell-based, Bacillus subtilis; conditions: read-out: Antibacterial activity MIC B. subtilis ATCC6633
[2] = molecular target: Eukaryotic system (eukaryotic cytoplasmic ribosome); assay: Eukaryotic translation inhibition, coupled transcription/translation, luciferase detection; format: biochemical; conditions: for Prokaryotic versus Eukaryotic selectivity IC50^Euk/IC50^Pro: ratio of eukaryotic to prokaryotic translation inhibition IC50
Source text: Prokaryotic and eukaryotic translation inhibition was quantified in coupled transcription/translation assays by using active luciferase detection, performed as described hereinabove. […] In all biological tests, all tested aminoglycosides were in their sulfate salt forms. The concentrations reported refer to that of the free amine form of each aminoglycoside.
(§1) In all biological experiments conducted, all tested aminoglycosides were in their sulfate salt forms. The concentrations reported in Table 3 refer to that of the free amine form of each aminoglycoside. Prokaryotic and eukaryotic translation inhibition was quantified in coupled transcription/translation assays as previously described. The half-maximal concentration (IC50) values were obtained from fitting concentration response curves to the data of at least three independent experiments, using GraFit 5 software.

[3] = Cell toxicity LC50 in HFF cells; format: cell-based; conditions: human, HFF (human foreskin fibroblast) cells, read-out: Cell toxicity LC50 HFF
Method: (§2) In order to ensure suitable cell viability for each of the tested compounds at the concentrations tested, cell toxicity was evaluated for each compound by measuring the half-maximal-lethal concentration value (LC50 values) in HEK-293 and HFF (human foreskin fibroblasts) cells.
(§3) The percentages of cell viability were calculated as the ratio between the numbers of living cells in cultures grown in the presence of the tested compounds, versus cultures grown under the identical protocol but without the tested compound. The results represent averages of at least three independent experiments.
(§4) The half-maximal lethal concentration (LC50) values were obtained from fitting concentration-response curves to the data of at least three independent experiments, using GraFit 5 software.

[4] = tested on: nonsense mutation constructs R3X, R245X, Q70X, W1282X, G542X in HEK-293 cells; assay: Ex vivo stop codon readthrough assay, p2luc constructs transfected to HEK-293 cells; format: cell-based, human; conditions: ex vivo in HEK-293, all the mutations tested, FIGS. 4, 8-10
Method: For the ex vivo readthrough assays, the constructs harboring the R3X, R245X, Q70X and W1282X mutations were transfected to HEK-293 cells with Lipofectamine 2000 (Invitrogen) and addition of the tested compounds was performed 6 hours post transfection. The cells were harvested following 16 hours of incubation with the tested aminoglycosides. Stop codon readthrough was calculated as previously described (see, Grentzmann, G. et al., RNA, 1998, 4, p. 479).
The constructs were transfected into a human embryonic kidney cell line (HEK-293) and incubated with varying concentrations of NB122, NB123, NB54 and the control drug gentamicin, and the results are presented in FIGS. 4A-D.
As described hereinabove, the constructs of p2luc plasmid harboring the R3X, R245X, Q70X and W1282X mutations were transfected to HEK-293 cells using lipofectamine2000 and the tested compounds were added 6 hours post transfection. Cells were harvested after 16 hours incubation and luciferase activity was determined using the dual luciferase reporter assay system (Promega™). Stop codon readthrough was calculated as described previously, and the results are averages of at least three independent experiments.

[5] = molecular target: Prokaryotic system (prokaryotic ribosome); assay: Prokaryotic translation inhibition, coupled transcription/translation, luciferase detection; format: biochemical
Method: Prokaryotic and eukaryotic translation inhibition was quantified in coupled transcription/translation assays by using active luciferase detection, performed as described hereinabove. […] All the experiments were performed in duplicates and analogous results were obtained in three different experiments. In all biological tests, all tested aminoglycosides were in their sulfate salt forms. The concentrations reported refer to that of the free amine form of each aminoglycoside.
as §1, with “software. All the experiments were performed in duplicates and analogous results were obtained in three different experiments.” for “software.”

[6] = Cell toxicity LC50 in HEK-293 cells; format: cell-based; conditions: human, HEK-293 cells, read-out: Cell toxicity LC50 HEK-293
Method: as §2, §3, §4

[7] = tested on: nonsense mutation constructs R3X, R245X, G542X, W1282X, Q70X, R3381X (PCDH15, CFTR, IDUA, Dystrophin); assay: In vitro stop codon readthrough assay, p2Luc dual luciferase, TNT reticulocyte lysate; format: biochemical; conditions: cell-free, mutations tested; comparison in words from FIGS. 2, 3, 5-7
Source text: DNA fragments derived from PCDH15, CFTR, Dystrophin and IDUA cDNAs, including the tested nonsense mutation or the corresponding wild type (wt) codon, and four to six upstream and downstream flanking codons were created by annealing following pairs of complementary oligonucleotides:
The fragments were inserted in frame into the polylinker of the p2Luc plasmid between either BamHI and SacI (p.R3X and p.R245X), or SalI and SacI (all the rest) restriction sites.
For the in vitro readthrough assays, the obtained plasm ids, with addition of the tested aminoglycosides were transcribed and translated using the TNT Reticulocyte Lysate Quick Coupled Transcription/Translation System. Luciferase activity was determined after 90 minutes of incubation at 30° C., using the Dual Luciferase Reporter Assay System (Promega™).
Initially, the influence of the chiral C5″-methyl group on readthrough potential was evaluated on the pseudo-trisaccharides NB118 and NB119 by using a dual luciferase reporter assay system as described hereinabove. Briefly, DNA fragments were cloned between BamHI and SacI restriction sites of the p2luc vector and the obtained constructs were transcribed and translated using TNT quick coupled transcription/translation system. The amount of the translated products was evaluated using the dual luciferase reporter assay system and used to calculate the suppression level.

[8] = tested on: HFF (human foreskin fibroblasts) cells; assay: Cell toxicity LC50 in HFF cells; format: cell-based; conditions: Table 2
Method: as §2, §3, §4

HEK-293 cells = assay: Cell toxicity LC50 in HEK-293 cells; format: cell-based; conditions: Table 2
Method: as §2, §3, §4

[9] = Bacillus subtilis, ATCC6633, Table 2
[10] = Table 2, read-out: Translation Inhibition Eukaryotic System IC50
[11] = Table 3, read-out: Translation Inhibition IC50^Euk
[12] = Table 2, read-out: Translation Inhibition Prokaryotic system IC50
[13] = Table 3, read-out: Translation Inhibition IC50^Pro

SMILES | weaker inhibitors of prokaryotic translation than gentamicin and paromomycin [1] | MIC (B. subtilis ATCC6633; [9]) [µM] | IC50 [2, 10] [µM] | IC50 [2, 11] [µM] | Prokaryotic versus Eukaryotic selectivity IC50^Euk/IC50^Pro [2] | CC50 ([3]; Table 2) [µM] | observed efficacy of aminoglycoside-induced readthrough, order [4] | IC50 [5, 12] [µM] | IC50 [5, 13] [µM] | CC50 ([6]; Table 2) [µM] | further results
C[C@@H](O)C1O[C@H](O[C@@H]2C(N)C[C@@H](NC(=O)[C@@H](O)CCN)[C@@H](O)C2O[C@@H]2O[C@H](CN)[C@H](O)C2O)[C@@H](N)C(O)[C@@H]1O (stereo partly drawn) [NB84, reference compound] | about 10 fold | 70 (≈ 39.9 µg/mL) | 2.8 ± 0.3 | 2.8 ± 0.3 | 2.9 | 16300 ± 470 | NB127 NB128>NB84>gentamicin | 0.98 ± 0.07 | 0.98 ± 0.07 | 5770 ± 680 | MIC (E. coli R477/100; Escherichia coli, R477/100, Table 2): 556 µM (≈ 317 µg/mL)
C[C@@H](O)C1O[C@H](O[C@@H]2C(N)C[C@@H](N)[C@@H](O)C2O[C@@H]2O[C@H](CN)[C@H](O)C2O)[C@@H](N)C(O)[C@@H]1O (stereo partly drawn) [NB74, reference compound] | about 10 fold | 42 (≈ 19.7 µg/mL) |  |  |  | 21300 ± 1720 | NB124>NB125>NB74>gentamicin | 1.13 ± 0.12 | 1.13 ± 0.12 | 22200 ± 1060 | 
CC(N)C1OC(OC2C(O)C(NC(=O)C(O)CCN)CC(N)C2OC2OC(C(C)O)C(O)C(O)C2N)C(O)C1O [NB127, 6′-(R)-Methyl-5-O-(5-amino-5,6-dideoxy-α-L-talofuranosyl)-1-N—[(S)-4-amino-2-hydroxy-butanoyl] paromamine] |  |  | 0.73 ± 0.07 | 0.73 ± 0.07 | 0.4 |  | NB127 NB128>NB84>gentamicin | 1.75 ± 0.274 | 1.75 ± 0.274 |  | MIC (E. coli R477/100; Table 2): 384 µM (≈ 224 µg/mL); MIC (B. subtilis ATCC6633; Table 2): 192 µM (≈ 112 µg/mL); in vitro readthrough activity (stop codon suppression level) [7]: significantly stronger readthrough inducers than the corresponding counterparts; CC50 [8]: 6480 ± 260 µM; CC50 (HEK-293 cells): 5090 ± 270 µM
NC[C@H]1O[C@@H](O[C@@H]2C(O)[C@H](N)CC(N)[C@H]2O[C@H]2OC(CO)[C@@H](O)[C@H](O)C2N)C(O)[C@H]1O (stereo partly drawn) [NB30, reference compound] | about 10 fold |  |  | 31 ± 4 | 68 |  |  |  | 0.46 ± 0.05 |  | MIC (E. coli R477/100; Escherichia coli, R477/100, Table 1): 790 µM (≈ 359 µg/mL); MIC (B. subtilis ATCC6633; Bacillus subtilis, ATCC6633, Table 1, free amine concentration, sulfate salts tested): 100 µM; IC50 ([2]; Table 1, read-out: Translation inhibition Eukaryotic System IC50): 31 µM; CC50 ([3]; Table 1): 21800 ± 900 µM; IC50 ([5]; Table 1, read-out: Translation inhibition Prokaryotic system IC50): 0.46 ± 0.05 µM; CC50 ([6]; Table 1): 21400 µM
